The text below walks through data of patent US20210301349A1, “COMPOSITIONS AND METHODS FOR TREATING A TUMOR SUPPRESSOR DEFICIENT CANCER” (BETH ISRAEL DEACONESS MEDICAL CENTER, INC., priority 2016, published 2021).

Entries after “also recorded” stand apart in the source; their conditions may differ.

The test system of one assay is NFκB signaling. Nature of the assay: Western blot and expression analysis of Pten^pc−/−; Zbtb7a^pc−/− tumors treated with CXCR2 antagonist. To be noted: versus vehicle. Type of assay: in vivo, mouse. How it is done:
(§1) Mice were allocated at random to experimental groups and studies were performed in an unblended manner. For treatment with the CXCR2 antagonist, SB225002 (Cayman Chemical #13336) was dissolved in DMSO (10 mg/ml) and diluted in vehicle (0.9% NaCl, 0.3% Tween 80) for in vivo administration. Mice (4 months of age) were treated daily for 10 days by intraperitoneal injection (5 mg/kg) and prostate tumor tissue (anterior lobes) was subjected to Flow Cytometry and histological analysis. For MRI analysis, mice (4 months of age) were treated daily for 21 days (Pten^pc−/−; Zbtb7a^pc−/−), for 14 days (Pten^pc−/−; Trp53^pc−/−) or for 14 days (Pten^pc−/−; Pml^pc−/−) by intraperitoneal injection (5 mg/kg). […] Tumor volume quantification was performed by using VivoQuant and Image J software. […]
For western blotting, cell lysates were prepared by homogenizing tumor tissue with NP40 Buffer (Boston Bioproducts) supplemented with protease (Roche) and HALT phosphatase inhibitor cocktails (Thermo Scientific) and subsequently subjected to SDS-Gel separation (Invitrogen) and western blotting. […] Western blots were quantified using Image J software. […] Embedding and hematoxylin and eosin staining of sections were performed by the Histology Core at BIDMC and analyzed by a pathologist. […]

Assay [1] concerns Pten^pc−/−; Trp53^pc−/− prostate tumors. Nature of the assay: Flow cytometry of immune infiltrate in treated Pten^pc−/−; Trp53^pc−/− prostate tumors. To be noted: Trp53^pc−/− prostate tumors after treatment. Type of assay: in vivo, mouse. The method, then: as §1, with “mg/kg). For depletion of Gr-1+/CD11b+ cells, Ly6G-depletion antibody (1A8, BioXcell) and control Rat IgG2a antibody (BioXcell) were diluted in phosphate-buffered saline (PBS) for in vivo administration. Mice (4 months of age) were treated every other day for 10 days by intraperitoneal injection (200-300 μg/mouse).” for “mg/kg).”
For Flow Cytometry, spleen and lymph node single cell suspensions were prepared by mashing the tissue in 2% FBS/PBS. […] All staining mixtures were analyzed on a BD LSR II flow cytometer (Becton Dickinson). Resulting profiles were further processed and analyzed using the FlowJo 8.7 software.
(In general: Flow cytometry measures light scatter and fluorescence of single cells or particles in a stream.)

In the case of `O=C(Nc1ccc([N+](=O)[O-])cc1O)Nc1ccccc1Br` [SB225002], the “expression of CXCL5” value in the assay with NFκB signaling (Pten^pc−/−, Zbtb7a^pc−/− prostate tumors) is listed as “elevated expression of CXCL5”. In addition, in the assay on NFκB signaling (western blot of Pten^pc−/−, Zbtb7a^pc−/− tumors), the “IκBα protein level (normalized with β-actin)” value is “increased IκBα protein levels”. For the same compound, in assay [1], the “Treg cells (Foxp3+)” value is “less Foxp3+ cells; also recorded: less Treg cells” and the “intra-tumoral Gr-1+/CD11b+ cells” value is listed as “decrease of Gr-1+/CD11b+ cells”.
